Reference: patent US8940865B2, “Myocardial peptide, preparation method and uses thereof” (Dalian Zhen-Ao Pharmaceutical Co, Ltd., priority 2008, dated 2015)
“And” between values parts separate entries of the source, which are not always exact repeats. Equal entries are not always repeated.

Experiments:
[1] = system: vitro cultured myocardium poisoned by adriamycin; experiment: Activity detection experiment of cultivation of myocardium cell (MTT); type: cell-based; conditions: mitochondria dehydrogenase activity of adriamycin-damaged myocardium, listed as peptide
Description: “Activity detection experiment of cultivation of myocardium cell” provided by DaLian Zhen-Ao Pharmaceutical CO., LTD is adopted in the activity detection. The experiment is based on test of vitro cultured myocardium poisoned by adriamycin, wherein, […] (MTT) is used as reaction indicator to observe the enhancement of the activity of mitochondria dehydrogenase of the damaged myocardium conducted by cardio myopeptidin, to determine the protective effect of myocardium.

[2] = system: primary culture myocardium cell damaged by adriamycin; experiment: Effect of CMPC against adriamycin injury of primary culture myocardium cell (MTT); type: cell-based, Neonatal SD rat
Procedure: Remove the fibroblast through differential adhesion and chemistry method, and inoculate myocardium cell on the 96-well plates.
2.1.2 The Against Function of Cmpc to Injury of Adriamycin to Primary Culture Myocardium Cell.
Cell culture method is the same as 2.1.1
Preparation of model: Blank Control Group: cultivating myocardium cell with DMEM-H-15;
Model Group: adding 1 mg/L adriamycin, washing the plate with DMEM-H-15 two times after being cultivated for 1 h, adding DMEM-H-15 for cultivation;
Protective rate=(Ax−Amodel)/(Acontrol−Amodel)×100%;
(Ax, Amode, Acontrol respectively represent Absorbance value of Drug administration groups, Model Group and Blank control group.

[3] = system: ischemia/reperfusion damaged rat; experiment: Therapeutic administration, ischemia/reperfusion (LAD ligation) rat model; type: in vivo, SD rat; conditions: therapeutic i.v. 5 minutes after ligation; for CK / LDH / MDA / SOD: rat serum
Procedure: Intraperitoneal injecting 6% Urethane with 20 ml/kg to anaesthetize the animal, fixing the animal on operating table in supine position; being connected with the electrocardiograph to detect the limb II lead electrocardiogram, tracheal intubating and connecting the animal with respirators, taking continuous positive end-expiratory pressure with tidal volume of 6 ml/200 g, frequency of 55/min and breathing ratio of 2:1. Carrying out thoracotomy on the gap between the forth and the fifth ribs of the left border of sternum, separating the ribs and removing the pericardium. Ligating at the left anterior descending coronary artery by using 6/0 silk suture by the sign of left auricle lower margin, and setting a piece of polyethylene pipe with diameter of 1 mm between the ligation silk suture and blood vessel. Ligating the silk suture to press the left anterior descending coronary artery by the polyethylene pipe and cause myocardial ischemia. Taking part of myocardium becoming grey and electrocardiogram S-T segment raising as the sign of that the left anterior descending coronary artery is ligated successfully. Taking out the polyethylene pipe carefully to cause the reperfusion. Verifying the success of reoxygenation by reactive hyperemia of ischemia area and the descending of the raised S-T segment by ½. Reoxygenation for 30 minutes, then sampling blood from abdominal aorta to prepare serum which is used to measure the biochemical index (measuring the content of CK, LDH, MDA, SPD according to the Reagent kits Instruction).
Rat's heart was taken and after being blooded, the residual blood in the ventricle was cleaned by normal saline to weight the weight of whole heart. Fat was removed, the heart was crosscut into 4˜5 pieces and was put into a tube, to be carried out NBT dye at 37° C. (dying the normal tissue rather than the ischemic tissue), taking photographs. The ischemic area of the myocardium was cut to take a weighing, and then the myocardial infarct size (MIS) was calculated by the ratio of weight of the ischemic area of the myocardium to whole heart weight, which was present by percentage.
The drug was intravenously injured on the tail 5 minutes after ligation of LAD, then reperfusion was carried out for 30 min 30 minutes after ligation of LAD. Heart was taken after sampling blood from abdominal aorta. The biochemical index and the myocardial infarction size were measure by using the above method.

KGAWSNVLRGMGGAF [CMPC, Lys-Gly-Ala-Trp-Ser-Asn-Val-Leu-Arg-Gly-Met-Gly-Gly-Ala-Phe]
Activity value [1]: 2.3570 and 2.7328 and 2.564
% (protective rate) ([2]; Plate 1, Dosage 0.0032 mg/L): 2.01%
A540 ([2]; Plate 1, Dosage 0.0032 mg/L): 0.662 ± 0.036
% (protective rate) ([2]; Plate 1, Dosage 0.016 mg/L): 33.08%
A540 ([2]; Plate 1, Dosage 0.016 mg/L): 0.695 ± 0.039
% (protective rate) ([2]; Plate 1, Dosage 0.08 mg/L): 40.49%
A540 ([2]; Plate 1, Dosage 0.08 mg/L): 0.703 ± 0.012
% (protective rate) ([2]; Plate 1, Dosage 0.4 mg/L): 58.27%
A540 ([2]; Plate 1, Dosage 0.4 mg/L): 0.723 ± 0.018
% (protective rate) ([2]; Plate 1, Dosage 2 mg/L): 27.98%
A540 ([2]; Plate 1, Dosage 2 mg/L): 0.690 ± 0.025
% (protective rate) ([2]; Plate 1, Dosage 10 mg/L): 4.79%
A540 ([2]; Plate 1, Dosage 10 mg/L): 0.665 ± 0.032
% (protective rate) ([2]; Plate 1, Dosage 50 mg/L): 2.47%
A540 ([2]; Plate 1, Dosage 50 mg/L): 0.662 ± 0.031
% (protective rate) ([2]; Plate 2, Dosage 0.0032 mg/L): 36.17%
A540 ([2]; Plate 2, Dosage 0.0032 mg/L): 0.755 ± 0.033
% (protective rate) ([2]; Plate 2, Dosage 0.016 mg/L): 35.55%
A540 ([2]; Plate 2, Dosage 0.016 mg/L): 0.755 ± 0.024
% (protective rate) ([2]; Plate 2, Dosage 0.08 mg/L): 49.30%
A540 ([2]; Plate 2, Dosage 0.08 mg/L): 0.769 ± 0.055
% (protective rate) ([2]; Plate 2, Dosage 0.4 mg/L): 56.11%
A540 ([2]; Plate 2, Dosage 0.4 mg/L): 0.777 ± 0.057
% (protective rate) ([2]; Plate 2, Dosage 2 mg/L): 33.85%
A540 ([2]; Plate 2, Dosage 2 mg/L): 0.753 ± 0.065
% (protective rate) ([2]; Plate 2, Dosage 10 mg/L): 33.54%
A540 ([2]; Plate 2, Dosage 10 mg/L): 0.752 ± 0.039
% (protective rate) ([2]; Plate 2, Dosage 50 mg/L): 33.08%
A540 ([2]; Plate 2, Dosage 50 mg/L): 0.752 ± 0.036
% (protective rate) ([2]; Plate 3, Dosage 0.016 mg/L): 55.92%
A540 ([2]; Plate 3, Dosage 0.016 mg/L): 0.810 ± 0.020
% (protective rate) ([2]; Plate 3, Dosage 0.08 mg/L): 60.35%
A540 ([2]; Plate 3, Dosage 0.08 mg/L): 0.819 ± 0.016
% (protective rate) ([2]; Plate 3, Dosage 0.4 mg/L): 42.34%
A540 ([2]; Plate 3, Dosage 0.4 mg/L): 0.781 ± 0.050
% (protective rate) ([2]; Plate 3, Dosage 2 mg/L): 39.42%
A540 ([2]; Plate 3, Dosage 2 mg/L): 0.775 ± 0.008
% (protective rate) ([2]; Plate 3, Dosage 10 mg/L): 36.41%
A540 ([2]; Plate 3, Dosage 10 mg/L): 0.768 ± 0.057
% (protective rate) ([2]; Plate 3, Dosage 50 mg/L): 30.49%
A540 ([2]; Plate 3, Dosage 50 mg/L): 0.756 ± 0.014
CK ([3]; Dosage 0.2 mg/kg): 2.026 ± 0.532 U/ml
LDH ([3]; Dosage 0.2 mg/kg): 7763.83 ± 770.70 U/L
MDA ([3]; Dosage 0.2 mg/kg): 4.878 ± 0.430 nmol/mL
SOD ([3]; Dosage 0.2 mg/kg): 140.59 ± 20.28 U/ml
CK ([3]; Dosage 0.6 mg/kg): 1.748 ± 0.573 U/ml
LDH ([3]; Dosage 0.6 mg/kg): 7034.59 ± 1167.17 U/L
MDA ([3]; Dosage 0.6 mg/kg): 4.862 ± 0.468 nmol/mL
SOD ([3]; Dosage 0.6 mg/kg): 145.41 ± 10.56 U/ml
CK ([3]; Dosage 1.8 mg/kg): 1.707 ± 0.332 U/ml
LDH ([3]; Dosage 1.8 mg/kg): 7233.69 ± 297.69 U/L
MDA ([3]; Dosage 1.8 mg/kg): 4.685 ± 0.714 nmol/mL
SOD ([3]; Dosage 1.8 mg/kg): 143.41 ± 12.14 U/ml
MIS (myocardial infarct size) ([3]; Dosage 0.2 mg/kg): 3.95 ± 0.97 %
MIS (myocardial infarct size) ([3]; Dosage 0.6 mg/kg): 4.20 ± 0.78 %
MIS (myocardial infarct size) ([3]; Dosage 1.8 mg/kg): 3.68 ± 1.39 %
